From ChEMBL document CHEMBL3046731, “Synthesis and antifungal activity of 1-substitutedphenyl-3-(5-halobenzimidazol-2-yl) acylurea” (J Pestic Sci, 2010)
In brackets after ≈: the same amount, converted by molar mass.

Key:
Botrytis cinerea = experiment: Antifungal activity against Botryotinia fuckeliana assessed as inhibition of mycelium growth on potato dextrose agar at 25 +/- 1 degC for 96 hr; format: functional, organism-based
Sclerotinia sclerotiorum = experiment: Antifungal activity against Sclerotinia sclerotiorum assessed as inhibition of mycelium growth on potato dextrose agar at 25 +/- 1 degC for 96 hr; format: functional, organism-based

Row | Structure (SMILES) | EC50 (Botrytis cinerea) | EC50 (Sclerotinia sclerotiorum)
1 | O=C(NC(=O)c1nc2cc(Cl)ccc2[nH]1)Nc1ccc(Cl)c(Cl)c1 | 12.6 µg/mL (≈ 33 µM) | 5.5 µg/mL (≈ 14.3 µM)
2 | O=C(NC(=O)c1nc2cc(F)ccc2[nH]1)Nc1ccc([N+](=O)[O-])cc1 | 10.4 µg/mL (≈ 30.2 µM) | 8.71 µg/mL (≈ 25.4 µM)
3 | O=C(NC(=O)c1nc2cc(Cl)ccc2[nH]1)Nc1ccccc1 | 22.4 µg/mL (≈ 71.2 µM) | 11.7 µg/mL (≈ 37 µM)
4 | COC(=O)NC(=S)Nc1ccccc1NC(=S)NC(=O)OC [THIOPHANATE METHYL] | 1.03 µg/mL (≈ 3.01 µM) | 10.5 µg/mL (≈ 30.5 µM)
5 | O=C(NC(=O)c1nc2cc(F)ccc2[nH]1)Nc1ccc(F)cc1 | 10.9 µg/mL (≈ 34.6 µM) | 10.9 µg/mL (≈ 34.6 µM)
6 | O=C(NC(=O)c1nc2cc(Cl)ccc2[nH]1)Nc1ccc(Br)cc1 | 3.94 µg/mL (≈ 10 µM) | 9.28 µg/mL (≈ 23.6 µM)
7 | O=C(NC(=O)c1nc2cc(F)ccc2[nH]1)Nc1ccccc1 | 19.9 µg/mL (≈ 66.9 µM) | 6.55 µg/mL (≈ 22 µM)
8 | O=C(NC(=O)c1nc2cc(Cl)ccc2[nH]1)Nc1ccc([N+](=O)[O-])cc1 | 30.7 µg/mL (≈ 85.4 µM) | 9.14 µg/mL (≈ 25.4 µM)
9 | O=C(NC(=O)c1nc2cc(F)ccc2[nH]1)Nc1ccc(Cl)cc1 | 4.65 µg/mL (≈ 14 µM) | 14.6 µg/mL (≈ 43.9 µM)
10 | O=C(NC(=O)c1nc2cc(F)ccc2[nH]1)Nc1ccc(Cl)c(Cl)c1 | 11.5 µg/mL (≈ 31.5 µM) | 9.03 µg/mL (≈ 24.6 µM)
11 | O=C(NC(=O)c1nc2cc(Cl)ccc2[nH]1)Nc1ccc(Cl)cc1 | 18.9 µg/mL (≈ 54 µM) | 6.05 µg/mL (≈ 17.3 µM)
12 | O=C(NC(=O)c1nc2cc(F)ccc2[nH]1)Nc1ccc(Br)cc1 | 13.6 µg/mL (≈ 36.1 µM) | 8.66 µg/mL (≈ 23 µM)
13 | O=C(NC(=O)c1nc2cc(Cl)ccc2[nH]1)Nc1ccc(F)cc1 | 8.76 µg/mL (≈ 26.3 µM) | 6.23 µg/mL (≈ 18.7 µM)
